Values quoted from earlier work in PubChem BioAssay AID1259409 (Chemical Carcinogenesis Research Information System (CCRIS), 2018).
Values joined by “and” are separate entries in the source; they are usually repeats but may differ in a detail not shown here. Equal values may be shown once.

Tested on: rodent chemically induced tumor inhibition, incidence and multiplicity
Assay: CCRIS tumor inhibitor studies

SMILES: NCC(CC(=O)O)c1ccc(Cl)cc1 (stereo unspecified)
- tumour outcome (control, treated, inhibition, significance) (Carcinogen: N-METHYL-N'-NITRO-N-NITROSOGUANIDINE, 70-25-7, Dose [Inhibitor]: 0, 4 MG/KG IN NACL INJECTED 1/2 D FOR DURATION OF STUDY BEGINNING 1 WK POST CARCINOGEN DOSE (STUDY DURATION: 52 WK), Route [Inhibitor]: INTRAPERITONEAL, Species: RAT, Strain/Sex: WISTAR/MALE, Target Tissue: Type of Lesion: STOMACH: ADENOCARCINOMA, Dose [Carcinogen]: 50 UG/ML IN DRINKING WATER FOR 25 WK, Promoter: NONE USED): 13/19 (68%), 5/20 (25%), 63%, not calculated
- tumour outcome (control, treated, inhibition, significance) (Carcinogen: N-METHYL-N'-NITRO-N-NITROSOGUANIDINE, 70-25-7, Dose [Inhibitor]: 0, 8 MG/KG BW 1/2 D FOR 25 WK BEGINNING POST CARCINOGEN TREATMENT (STUDY DURATION: 52 WK), Route [Inhibitor]: SUBCUTANEOUS, Species: RAT, Strain/Sex: WISTAR/MALE, Target Tissue: Type of Lesion: STOMACH: TUMOR, Dose [Carcinogen]: 50 UG/ML IN DRINKING WATER FOR 25 WK, Promoter: NONE USED): 19/20 (95%), 10/20 (50%), 47%, p<0.001
- tumour outcome (control, treated, inhibition, significance) (Carcinogen: N-METHYL-N'-NITRO-N-NITROSOGUANIDINE, 70-25-7, Dose [Inhibitor]: 0, 8 MG/KG IN NACL INJECTED 1/2 D FOR DURATION OF STUDY BEGINNING 1 WK POST CARCINOGEN DOSE (STUDY DURATION: 52 WK), Route [Inhibitor]: INTRAPERITONEAL, Species: RAT, Strain/Sex: WISTAR/MALE, Target Tissue: Type of Lesion: STOMACH: ADENOCARCINOMA, Dose [Carcinogen]: 50 UG/ML IN DRINKING WATER FOR 25 WK, Promoter: NONE USED): 13/19 (68%), 5/18 (28%), 59%, not calculated
- tumour outcome (control, treated, inhibition, significance) (Carcinogen: N-METHYL-N'-NITRO-N-NITROSOGUANIDINE, 70-25-7, Dose [Inhibitor]: 0, 8 MG/KG/BW SUSPENSION IN OLIVE OIL 1/2 D BEGINNING POST CARCINOGEN TREATMENT AND CONTINUING FOR DURATION OF STUDY (ST, Route [Inhibitor]: SUBCUTANEOUS, Species: RAT, Strain/Sex: WISTAR/MALE, Target Tissue: Type of Lesion: STOMACH: ADENOCARCINOMA, Dose [Carcinogen]: 50 UG/ML IN DRINKING WATER FOR 25 WK, Promoter: NONE USED): 16/20 (80%), 8/20 (40%), 50%, p<0.05

SMILES: Brc1c(Br)c(Br)c2c(c1Br)Oc1c(Br)c(Br)c(Br)c(Br)c1O2
- tumour outcome (control, treated, inhibition, significance) (Carcinogen: 7,12-DIMETHYLBENZ[A]ANTHRACENE, 57-97-6, Dose [Inhibitor]: 0, 17 NMOL 2/WK APPLIED 1 HR PRIOR TO EACH PROMOTER DOSE FOR 20 WK (STUDY DURATION: 21 WK), Route [Inhibitor]: DERMAL, Species: MOUSE, Target Tissue: Type of Lesion: SKIN: TUMOR, Dose [Carcinogen]: 390 NMOL ONCE, Promoter: 12-O-TETRADECANOYLPHORBOL-13-ACETATE, 16561-29-8): 100%, 93%, 7%, not calculated

SMILES: CC(=O)/C=C/C1=C(C)CCCC1(C)C
- tumour outcome (control, treated, inhibition, significance) (Carcinogen: 7,12-DIMETHYLBENZ[A]ANTHRACENE, 57-97-6, Dose [Inhibitor]: 0, 36 MMOL/KG IN DIET FOR 24 WK BEGINNING 2 WK PRIOR TO CARCINOGEN DOSE (STUDY DURATION: 24 WK), Route [Inhibitor]: ORAL, Species: RAT, Strain/Sex: SPRAGUE-DAWLEY/FEMALE, Target Tissue: Type of Lesion: MAMMARY GLAND: TUMOR, Dose [Carcinogen]: 65 MG/KG BW ONCE, Promoter: NONE USED): 91%, 41%, 55%, not calculated
- tumour outcome (control, treated, inhibition, significance) (Dose [Inhibitor]: 0, 1000 PPM IN DIET BEGINNING 8 WK PRIOR TO CARCINOGEN AND CONTINUING FOR 6 WK POST CARCINOGEN (STUDY DURATION: 68 WK), Route [Inhibitor]: ORAL, Species: FISH, Strain/Sex: RAINBOW TROUT, Target Tissue: Type of Lesion: LIVER: HEPATOCELLULAR CARCINOMA, Dose [Carcinogen]: 20 PPB IN DIET FOR 2 WK, Promoter: NONE USED): 43/118 (36%), 38/118 (32%), 11%, not significant

SMILES: O=C1CCN(c2ccccc2)N1
- tumour outcome (control, treated, inhibition, significance) (Carcinogen: 7,12-DIMETHYLBENZ[A]ANTHRACENE, 57-97-6, Dose [Inhibitor]: 30 UMOL APPLIED 30-40 MIN BEFORE EACH TPA TREATMENT AND CONCURRENTLY WITH TPA (STUDY DURATION: 18 WK), Route [Inhibitor]: DERMAL, Species: MOUSE, Strain/Sex: CD-1/FEMALE, Target Tissue: Type of Lesion: SKIN: PAPILLOMA, Dose [Carcinogen]: 200 NMOL ONCE, Promoter: 12-O-TETRADECANOYLPHORBOL-13-ACETATE, 16561-29-8): 96%, 100%, -4%, not calculated

SMILES: O=c1c(O)c(-c2cc(O)c(O)c(O)c2)oc2cc(O)cc(O)c12
- tumour outcome (control, treated, inhibition, significance) (Carcinogen: 7,12-DIMETHYLBENZ[A]ANTHRACENE, 57-97-6, Dose [Inhibitor]: 100 UG IN 0.2 ML ACETONE ONCE 5 MIN BEFORE CARCINOGEN TREATMENT (STUDY DURATION: 31 WK), Route [Inhibitor]: DERMAL, Species: MOUSE, Strain/Sex: CD-1/FEMALE, Target Tissue: Type of Lesion: SKIN: PAPILLOMA, Dose [Carcinogen]: 10 NMOL IN 0.2 ML ACETONE ONCE, Promoter: 12-O-TETRADECANOYLPHORBOL-13-ACETATE, 16561-29-8): 87%, 85%, 2%, not calculated
- tumour outcome (control, treated, inhibition, significance) (Carcinogen: (+/-)-7BETA,8ALPHA-DIHYDROXY-9ALPHA,10ALPHA-EPOXY-7,8,9,10-TETRAHYDROBENZO[A]PYR ENE, 58917-67-2, Dose [Inhibitor]: 0, 1400 NMOL (TOTAL DOSE) 10 MIN PRIOR TO CARCINOGEN DOSE INJECTED AS 1/7, 2/7, AND 4/7 OF THE TOTAL ON DAYS 1, 8, AND 1, Route [Inhibitor]: INTRAPERITONEAL, Species: MOUSE, Strain/Sex: ICR/MALE,FEMALE, Target Tissue: Type of Lesion: LUNG: TUMOR, Dose [Carcinogen]: 30 NMOL (TOTAL DOSE) INJECTED IN DOSES OF 1/7, 2/7, AND 4/7 ON DAYS 1,8, AND 15 OF LIFE, RESPECTIVELY, Promoter: NONE USED): 93%, 65%, 30%, p<0.05
- tumour outcome (control, treated, inhibition, significance) (Carcinogen: (+/-)-7BETA,8ALPHA-DIHYDROXY-9ALPHA,10ALPHA-EPOXY-7,8,9,10-TETRAHYDROBENZO[A]PYR ENE, 58917-67-2, Dose [Inhibitor]: 0, 1400 NMOL (TOTAL DOSE) APPLIED 10 MIN PRIOR TO CARCINOGEN DOSE INJECTED AS 1/7, 2/7, AND 4/7 OF THE TOTAL ON DAYS 1,, Route [Inhibitor]: INTRAPERITONEAL, Species: MOUSE, Strain/Sex: ICR/MALE,FEMALE, Target Tissue: Type of Lesion: LUNG: TUMOR, Dose [Carcinogen]: 15 NMOL (TOTAL DOSE) INJECTED IN DOSES OF 1/7, 2/7, AND 4/7 ON DAYS 1, 8, AND 15 OF LIFE, RESPECTIVELY, Promoter: NONE USED): 63%, 36%, 43%, p<0.05
- tumour outcome (control, treated, inhibition, significance) (Carcinogen: BENZO[A]PYRENE, 50-32-8, Dose [Inhibitor]: 0, 1400 NMOL (TOTAL DOSE) APPLIED 10 MIN PRIOR TO CARCINOGEN DOSE INJECTED AS 1/7, 2/7, AND 4/7 OF THE TOTAL ON DAYS 1,, Route [Inhibitor]: INTRAPERITONEAL, Species: MOUSE, Strain/Sex: ICR/MALE,FEMALE, Target Tissue: Type of Lesion: LUNG: TUMOR, Dose [Carcinogen]: 450 NMOL (TOTAL DOSE) INJECTED IN DOSES OF 1/7, 2/7, AND 4/7 ON DAYS 1, 8, AND 15 OF LIFE, RESPECTIVELY, Promoter: NONE USED): 73%, 79%, -8%, not significant

SMILES: C[C@]12CCC(=O)C=C1CC[C@@H]1[C@@H]2CC[C@@]2(C)[C@H]1CC[C@]2(C)O
- tumour outcome (control, treated, inhibition, significance) (Carcinogen: N-BIS(2-HYDROXYPROPYL)NITROSAMINE, 53609-64-6, Dose [Inhibitor]: 0.03% IN DIET FOR 28 WK BEGINNING POST CARCINOGEN DOSE (STUDY DURATION: 30 WK), Route [Inhibitor]: ORAL, Species: RAT, Strain/Sex: WISTAR/MALE, Target Tissue: Type of Lesion: THYROID: ADENOMA, Dose [Carcinogen]: 210 MG/100 G 1/WK FOR 2 WK, Promoter: NONE USED): 9/13 (69%), 2/15 (13%), 81%, p<0.05
- tumour outcome (control, treated, inhibition, significance) (Carcinogen: N-BIS(2-HYDROXYPROPYL)NITROSAMINE, 53609-64-6, Dose [Inhibitor]: 0.03% IN DIET FOR 28 WK BEGINNING POST CARCINOGEN DOSE (STUDY DURATION: 30 WK), Route [Inhibitor]: ORAL, Species: RAT, Strain/Sex: WISTAR/MALE, Target Tissue: Type of Lesion: THYROID: CARCINOMA, Dose [Carcinogen]: 210 MG/100 G 1/WK FOR 2 WK, Promoter: NONE USED): 2/13 (15%), 2/15 (13%), 13%, not calculated
- tumour outcome (control, treated, inhibition, significance) (Carcinogen: N-BIS(2-HYDROXYPROPYL)NITROSAMINE, 53609-64-6, Dose [Inhibitor]: 0.15% IN DIET FOR 28 WK BEGINNING POST CARCINOGEN DOSE (STUDY DURATION: 30 WK), Route [Inhibitor]: ORAL, Species: RAT, Strain/Sex: WISTAR/MALE, Target Tissue: Type of Lesion: THYROID: ADENOMA, Dose [Carcinogen]: 210 MG/100 G 1/WK FOR 2 WK, Promoter: NONE USED): 9/13 (69%), 0/15 (0%), 100%, p<0.05

SMILES: CC1(C)O[C@H]2CC(=O)OC[C@]23[C@H]2CC[C@@]4(C)[C@H](c5ccoc5)OC(=O)[C@H]5O[C@]54[C@]2(C)C(=O)C[C@@H]13
- tumour outcome (control, treated, inhibition, significance) (Carcinogen: AZOXYMETHANE, 25843-45-2, Dose [Inhibitor]: 0, 0.05% IN DIET FOR 35 WK BEGINNING 1 WK POST CARCINOGEN LAST DOSE (STUDY DURATION: 38 WK), Route [Inhibitor]: ORAL, Species: RAT, Strain/Sex: F344/MALE, Target Tissue: Type of Lesion: COLON: ADENOCARCINOMA, Dose [Carcinogen]: 20 MG/KG BW 1/WK FOR 2 WK): 18/25 (72%), 1/16 (6%), 92%, p=0.00003 and 18/25 (72%), 2/16 (13%), 82%, p=0.0002
